Results taken from patent publication US20160256449A1, “H3 RECEPTOR ANTAGONIST FOR USE IN THE TREATMENT OF ALZHEIMER'S DISEASE” (SANOFI, priority 2013, published 2016).

Assays:
[1] = tested on: patients with mild to moderate Alzheimer's disease; assay: clinical study, responder analysis on combined criterion (ADAS-Cog, ADCS-ADL, CGIC); format: in vivo, human; conditions: week 24
From the text: FIG. 7 illustrates the rate of “responders” at week 24 for the four dose group according to a combined criterion on the ADAS-Cog (2 points improvement vs baseline), ADCS-ADL (no worsening) and CGIC (no worsening) during the clinical study described in Example 2, in the mITT population.
“CGIC” as used herein, refers to the Clinical Global impression of Change assessed (at week 12 and week 24 during the clinical study described in Example 2) by the investigator according to 3 modalities: “Improvement” (includes marked, moderate and minimal improvement), “No change” and “Worsening” (includes minimal, moderate and marked worsening).
FIG. 7 illustrates the responder analysis at week 24 based on a combined criterion defined as followed: […]
change from baseline to Week 24 lower than or equal to −2 points in the ADAS-Cog total score, and
change from baseline to Week 24 greater than or equal to 0 point in the ADCS-ADL global score, and
no worsening according to the CGIC assessment at Week 24.

[2] = tested on: patients with mild to moderate Alzheimer's disease; assay: clinical study, CDR-S computerized assessment; format: in vivo, human
Procedure: “CDR-S” as used herein, refers to the Cognitive Drug Research computerized assessment system which tests various aspects of human cognitive function, memory, and attention.
A randomized, double-blind, parallel-group, placebo-controlled clinical trial was performed to study the effect on cognitive performance, safety, and tolerability of 2-(cyclohexylmethyl)-N-{2-[(2S)-1-methylpyrrolidin-2-yl]ethyl}-1,2,3,4-tetrahydroisoquinoline-7-sulfonamide difumarate monohydrate as adjunct treatment to donepezil.
More specifically, patients with mild to moderate Alzheimer's disease on stable donepezil therapy were randomized to receive doses of 0.5 mg, 2 mg, or 5 mg/day of 2-(cyclohexylmethyl)-N-{2-[(2S)-1-methylpyrrolidin-2-yl]ethyl}-1,2,3,4-tetrahydroisoquinoline-7-sulfonamide difumarate monohydrate or placebo for 24 weeks, with a 10 week follow-up period.
Patients were randomized to receive 0.5 mg, 2 mg, or 5 mg of 2-(cyclohexylmethyl)-N-{2-[(2S)-1-methylpyrrolidin-2-yl]ethyl}-1,2,3,4-tetrahydroisoquinoline-7-sulfonamide difumarate monohydrate (measured in base form), or matching placebo once a day, with donepezil (5 mg or 10 mg in the form the patient took prior to enrollment), for 24 weeks, with or without food.
Change from baseline to Week 24 in the five factors from the Cognitive Drug Research computerized assessment system (CDR-S): power of attention, continuity of attention, quality of working memory, cognitive reaction time, and speed of memory;
Change from baseline to Week 8 and 24 in the Cognitive Drug Research computerized assessment system (CDR-S) episodic memory;

For `CN1CCC[C@H]1CCNS(=O)(=O)c1ccc2c(c1)CN(CC1CCCCC1)CC2` [API, 2-(cyclohexylmethyl)-N-{2-[(2S)-1-methylpyrrolidin-2-yl]ethyl}-1,2,3,4-tetrahydroisoquinoline-7-sulfonamide difumarate monohydrate], the “rate of responder on a combined criterion (ADAS-Cog, ADCS-ADL, CGIC)” value ([1]; 5 mg group with donepezil) was 16.7%, the “rate of responders over placebo” value ([1]; 5 mg/day with donepezil) was “higher rate” and the “episodic memory difference vs placebo” value ([2]; 5 mg/day with donepezil, at 24 weeks) was “no longer significant”. The “power of attention vs placebo, tendency” value ([2]; 0.5 and 5 mg group at week 24) was “Tendencies for improvement versus placebo”, the “power of attention change from baseline vs placebo” value ([2]; all dose groups, week 8 or week 24, mITT) was “no significant difference” and the “CDR-S measure of working memory” value ([2]; week 24, with donepezil) was “not significantly modified”. The “CDR-S other measures of attention/speed of response” value ([2]; week 24, with donepezil) was “not significantly modified”.
